PubChem BioAssay AID1919014 (Molecular Pharmacology Branch, DTP, NCI, 2023)
Several values for one entry are separate records, joined by “and”; a condition that tells them apart may be missing. Equal entries are not always repeated. Each block holds one molecule with its values, some of them ahead of it.

Tested on: NCI-H1341 complex spheroids, percent test/control
Assay: Anticancer human tumor NCI-H1341 cell line growth inhibition [AhR];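 note: spheroids exposed to agents for seven days before readout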
Conditions: for viability, T/C: stronger effect = lower value
From the text: Multicellular complex tumor spheroid response to aryl hydrocarbon receptor antagonists in combination with a variety of drugs and investigational agents in selected tumor cell lines
The current study was undertaken to assess response to aryl hydrocarbon receptor antagonists in combination with standard-of-care drugs and investigational agents in solid tumor complex spheroid models. Complex spheroids include a stromal component modeled by human endothelial cells (HUVEC) and fibroblasts modeled by human mesenchymal stem cells (MSCs). The concentration ranges selected for each drug and investigational agent were based upon clinically achievable concentrations if the clinical Cmax of the agent was known.
Compounds. The drugs and investigational agents: BAY 2416964 (NSC825713), GNF351 (NSC835774), CH-223191 (NSC835775), CPI-455 (NSC825282), aza-TdCyd (NSC777586), decitabine (NSC127716), belinostat (NSC758774), entinostat (NSC756642), pevonedistat (NSC761192), tazemetostat (NSC777109), talazoparib (NSC765396), olaparib (NSC753686), selinexor (NSC780203), nedisertib (M3814, NSC802822), bortezomib (NSC756655), venetoclax (NSC766270), doxorubicin (NSC123127), elimusertib (BAY189344, NSC800525), ceralasertib (AZD6738, NSC777638), TAK-243 (NSC785004), alisertib (NSC759677), etoposide (NSC141540), topotecan (NSC609699), eribulin (NSC707389), gemcitabine (NSC613327), carboplatin (NSC241240), cisplatin (NSC119875), and SN-38 (NSC673596) were obtained from the National Cancer Institute (NCI) Developmental Therapeutics Program Chemical Repository (32). The FDA-approved anticancer drug set is available from the Developmental Therapeutics Program at https://dtp.cancer.gov/organization/dscb/obtaining/available plates.htm. […] The stock solutions were prepared in dimethyl sulfoxide (DMSO, Sigma-Aldrich, St. Louis, MO, cat. D2650), except for the platinum compounds which were prepared in saline (Quality Biological, Gaithersburg, MD, cat. 114-055-101), at 800-fold the tested concentration and stored at -70 degrees C prior to their use. All drugs and investigational agents were tested over a range starting from a high concentration at or near the clinical Cmax and decreasing in half-log increments. If the clinical Cmax for an agent had not been determined, the highest concentration tested was 10 microM (Table 1).
Cell Culture. All cells were maintained in an incubator at 37 degrees C and 5% CO2 with 95% humidity. The PDC lines were cultured according to standard operating procedures established by the NCI PDMR (https://pdmr.cancer.gov). Briefly, all PDCs were thawed and cultured in Matrigel-coated flasks prepared with a working solution of 1X Ham's F-12 nutrient mix, without supplementation (Invitrogen, Waltham, MA, cat. 11765054), 100 U/mL penicillin-streptomycin (Invitrogen, cat. 15140122), and 2.5% Matrigel (Corning Inc., Corning, NY, cat. 354248) for the first three passages. All PDCs were cultured in complete DMEM/F-12 media containing advanced DMEM/F-12 (Invitrogen, cat. 12634028), 4.9% defined fetal bovine serum, heat inactivated (HyClone Laboratories Inc., Logan, UT, cat. SH30070.03HI), 389 ng/mL hydrocortisone (Sigma-Aldrich, cat. H4001), 9.7 ng/mL human EGF recombinant protein (Invitrogen, cat. PHG0313), 23.4 microg/mL adenine (Sigma-Aldrich, cat. A2786), 97.3 U/mL penicillin-streptomycin (Invitrogen, cat. 15140122), 1.9 mM L-glutamine (Invitrogen, cat. 25030081), and 9.7 microM Y-27632 dihydrochloride (Tocris Bioscience, Bristol, United Kingdom, cat. 1254). The PDCs were cultured in complete DMEM/F12 media without 10 microM Y-27632 dihydrochloride for at least two passages prior to the screen. The established cell lines NCI-H1341 and […] were cultured in DMEM/F-12, HEPES (Invitrogen, cat. 11330032), 5% defined fetal bovine serum (HyClone Laboratories Inc., cat. SH30070.03), ITS premix universal culture supplement [insulin (5 microg/mL), transferrin (5 microg/mL), and selenious acid (5 ng/mL)] […]

IC50 (curve of compound): 5 nM and 4.6 nM
Structure (SMILES): CC(C)CC(NC(=O)C(Cc1ccccc1)NC(=O)c1cnccn1)B(O)O (stereo unspecified)
viability, T/C (compound 0.000949 µM): 97% and 95% and 100%
viability, T/C (compound 0.003 µM): 87.7% and 87% and 79%
viability, T/C (compound 0.00949 µM): 2.76% and 3.47% and 0.86%
viability, T/C (compound 0.03 µM): 0.19% and 0.35% and 0.14%
viability, T/C (compound 0.0949 µM): 0.14% and 0.25% and 0.11%
viability, T/C (compound 0.3 µM): 0.17% and 0.31% and 0.15%

IC50 (curve of compound): > 10000 nM
Structure (SMILES): CC(C)c1c(-c2ccccc2)nc2c(C#N)c[nH]n2c1=O
viability, T/C (compound 0.0316 µM): 105% (2×) and 130%
viability, T/C (compound 0.1 µM): 93.4% and 104% and 101%
viability, T/C (compound 0.316 µM): 90% and 98.5% and 101%
viability, T/C (compound 1 µM): 88.2% and 103% and 97.3%
viability, T/C (compound 3.16 µM): 100% and 82.5% and 90.3%
viability, T/C (compound 10 µM): 78% and 92% and 91.9%

IC50 (compound alone, run of 07/12/2022): > 10000 nM
Structure (SMILES): CC(CO)NC(=O)c1cc(-c2ccc(Cl)cc2)nn(-c2cnn(C)c2)c1=O (stereo unspecified)
viability, T/C (compound 10 µM): 78.7% [middle of 19 runs]

IC50 (curve of compound): > 10000 nM and 2070 nM and 2200 nM
Structure (SMILES): CC1(C)CCC(CN2CCN(c3ccc(C(=O)NS(=O)(=O)c4ccc(NCC5CCOCC5)c([N+](=O)[O-])c4)c(Oc4cnc5[nH]ccc5c4)c3)CC2)=C(c2ccc(Cl)cc2)C1
viability, T/C (compound 0.0316 µM): 113% and 85.5% and 86.1%
viability, T/C (compound 0.1 µM): 97% and 69.1% and 76.1%
viability, T/C (compound 0.316 µM): 95.7% and 108% and 96.4%
viability, T/C (compound 1 µM): 101% and 68% and 72.1%
viability, T/C (compound 3.16 µM): 92.2% and 38.2% and 39.1%
viability, T/C (compound 10 µM): 85.7% and 14% and 10.1%

IC50 (curve of compound): 43.2 nM and 79.6 nM and 38.3 nM
Structure (SMILES): CC1COCCN1c1cc(-c2ccnn2C)c2ccnc(-c3ccn[nH]3)c2n1 (stereo unspecified)
viability, T/C (compound 0.00316 µM): 107% and 90.1% and 110%
viability, T/C (compound 0.01 µM): 115% and 99.5% and 98.4%
viability, T/C (compound 0.0316 µM): 60.1% and 77.4% and 53.4%
viability, T/C (compound 0.1 µM): 28.1% and 43% and 29.3%
viability, T/C (compound 0.316 µM): 23.1% and 38.5% and 23.2%
viability, T/C (compound 1 µM): 16.5% and 27.6% and 19.2%

IC50 (curve of compound): 4400 nM and 2570 nM and 1910 nM
Structure (SMILES): CC1COCCN1c1cc(C2(S(C)(=N)=O)CC2)nc(-c2ccnc3[nH]ccc23)n1 (stereo unspecified)
viability, T/C (compound 0.0316 µM): 78.3% and 98.6% and 99.5%
viability, T/C (compound 0.1 µM): 102% and 101% and 88.4%
viability, T/C (compound 0.316 µM): 83.1% and 114% and 76.1%
viability, T/C (compound 1 µM): 96.3% and 75.8% and 66.2%
viability, T/C (compound 3.16 µM): 60.8% and 47.8% and 37.9%
viability, T/C (compound 10 µM): 23.1% and 30.4% and 20.2%

IC50 (curve of compound): > 3000 nM
Structure (SMILES): CCN(c1cc(-c2ccc(CN3CCOCC3)cc2)cc(C(=O)NCc2c(C)cc(C)[nH]c2=O)c1C)C1CCOCC1
viability, T/C (compound 0.00949 µM): 94.3% and 103% and 94.7%
viability, T/C (compound 0.03 µM): 84.3% and 90.7% and 97%
viability, T/C (compound 0.0949 µM): 101% and 87.8% and 83%
viability, T/C (compound 0.3 µM): 85% and 87.6% and 82.2%
viability, T/C (compound 0.949 µM): 79.2% and 119% and 90.2%
viability, T/C (compound 3 µM): 90.2% and 89.3% and 73.7%

IC50 (curve of compound): 29.9 nM and 56.8 nM and 71.3 nM
Structure (SMILES): CC[C@@]1(O)C(=O)OCc2c1cc1n(c2=O)Cc2cc3c(CN(C)C)c(O)ccc3nc2-1
viability, T/C (compound 0.000316 µM): 89.2% and 92.2% and 98.9%
viability, T/C (compound 0.001 µM): 94.4% and 86.7% and 107%
viability, T/C (compound 0.00316 µM): 89.6% and 91.8% and 112%
viability, T/C (compound 0.01 µM): 80.9% and 79.7% and 87.2%
viability, T/C (compound 0.0316 µM): 48.4% and 65.8% and 57.3%
viability, T/C (compound 0.1 µM): 35.3% and 35% and 46.5%

IC50 (curve of compound): 10.5 nM and 19.6 nM and 12.3 nM
Structure (SMILES): CCc1c2c(nc3ccc(O)cc13)-c1cc3c(c(=O)n1C2)COC(=O)[C@]3(O)CC
viability, T/C (compound 0.000949 µM): 89.8% and 92.6% and 89%
viability, T/C (compound 0.003 µM): 77% and 86.1% and 83.9%
viability, T/C (compound 0.00949 µM): 46.3% and 51.3% and 49.4%
viability, T/C (compound 0.03 µM): 34.4% and 45.9% and 36.6%
viability, T/C (compound 0.0949 µM): 27.4% and 34.4% and 28.5%
viability, T/C (compound 0.3 µM): 13.3% and 18.2% and 17%

Structure (SMILES): COc1cc(C2c3cc4c(cc3C(OC3OC5COC(C)OC5C(O)C3O)C3COC(=O)C23)OCO4)cc(OC)c1O (stereo unspecified)
viability, T/C (compound 0.0316 µM): 98.7% and 93.7% and 88.8%
viability, T/C (compound 0.1 µM): 86.3% and 90.8% and 80.8%
viability, T/C (compound 0.316 µM): 75.5% and 77.2% and 57%
viability, T/C (compound 1 µM): 44.2% and 51.9% and 53.8%
viability, T/C (compound 3.16 µM): 35.1% and 45.4% and 52.8%
viability, T/C (compound 10 µM): 35.9% and 30.7% and 53.1%

IC50 (curve of compound): < 31.6 nM
Structure (SMILES): COc1cc(Nc2ncc3c(n2)-c2ccc(Cl)cc2C(c2c(F)cccc2OC)=NC3)ccc1C(=O)O
viability, T/C (compound 0.0316 µM): 33% and 48.4% and 43.1%
viability, T/C (compound 0.1 µM): 43.8% and 51.7% and 43%
viability, T/C (compound 0.316 µM): 37% and 43.2% and 50.4%
viability, T/C (compound 1 µM): 29.6% and 37.5% and 36.1%
viability, T/C (compound 3.16 µM): 27.7% and 28% and 29.3%
viability, T/C (compound 10 µM): 22.2% and 26.8% and 26.4%
